Assay results as given in patent US20240199688A1, “METHODS FOR REDUCING LIPASE ACTIVITY” (Regeneron Pharmaceuticals, Inc., priority 2022, published 2024).

Tested on: polysorbate degrading activity
Experiment: Reduction of polysorbate degrading activity by lipase inhibitors
Assay type: biochemical, CHO
[1] = 0.001 mM lipase inhibitor, relative to control without inhibitor

| Compound | Percent reduction in polysorbate 20 degradation [1] [%] | Percent reduction in polysorbate 20 degradation (0.01 mM lipase inhibitor) | Percent reduction in polysorbate 20 degradation (0.1 mM lipase inhibitor) [%] |
| --- | --- | --- | --- |
| CCCCOc1ccccc1B(O)O [2-Butoxyphenyl boronic acid, 2-butoxyphenylboronic acid] | 0 | 28% | 0 |
| CCCCCCCCCCC[C@@H](C[C@@H]1OC(=O)[C@H]1CCCCCC)OC(=O)[C@H](CC(C)C)NC=O [Orlistat, orlistat] | 0 | 27.8%^ | 67 |
| O=C(Nc1cccc(-c2ccccc2)c1)OC1CCCCC1 [URB602, [1-1′-biphenyl]-3-t1-carbamicacid cyclohexyl ester] | 0 | 20% | 0 |
| diethylumbelliferyl phosphate | 48 | 100% | >95 |
